Patent US9422309B2, “3-O-heteroaryl-ingenol” (LEO LABORATORIES LIMITED, priority 2012, dated 2016)

Legend:
Assay type in all cases: cell-based
[1] = system: Primary human epidermal keratinocytes, HeKa; assay: HeKa cytokine release (IL-8); conditions: 6 h at 37° C., normalised to 1.5×10^−7 M PEP0005, read-out: HeKa cytokine release (IL-8) Rel EC50 range
Procedure: Primary human epidermal keratinocytes, HeKa, are seeded (10.000 cells/well) in 96-well plates the day before the assay. Test compounds are diluted in DMSO (dimethyl sulfoxide) and further diluted in assay medium and pipetted into wells of 96 well-plates containing HeKa cells. The plates are incubated for 6 h at 37° C. in humidified air with 5% CO2. Plates are centrifuged briefly to spin down cells at 4° C., the supernatant is removed and analysed by Meso Scale Discovery (MSD) 4-spot cytokine assay (Pro-inflammatory II Ultra Sensitive kit, MSD, MD, USA). The MSD assay employs a sandwich immunoassay format where capture antibodies are coated in a patterned array on the bottom of the wells of a 4-Spot-Multi-MSD plate. Standard samples are incubated in the MULTI-SPOT plates as well, and the cytokine (IL-8) binds to its corresponding capture antibody spot. The cytokine level is quantitated on a SECTOR™ Imager using a cytokine-specific Detection Antibody labelled with MSD SULFO-TAG™ reagent.
(§1) Test compound titration curves are fitted to a four-parameter sigmoidal curve after normalizing the effect of the test compound to the effect of the positive control (1.5×10^−7 M PEP0005). Rel EC50 denotes the concentration of test compound producing an effect that is midway between the fitted top and bottom.

[2] = system: PMN's (polymorphonuclear leukocytes); assay: Neutrophil oxidative burst; conditions: Leukocyte, 40 min; 40 min incubation at rt; normalised to 5×10^−7 M PEP0005; read-out: Neutrophil oxidative burst Rel EC50 range
Procedure: PMN's (polymorphonuclear leukocytes) are isolated and purified from fresh buffy coats by sequential sedimentation, density centrifugation and lysis of contaminating erythrocytes. In brief, buffy coats are incubated with 2% methocel for 30-45 min to differentially sediment red blood cells. The leukocyte-rich supernatant is transferred to lymphoprep tubes to remove mononuclear cells by density centrifugation (400×g, 30 min). The pellet is resuspended and any remaining erythrocytes lysed using 0.2% NaCl for 30 sec before restoring isotonicity by the addition of 1.2% NaCl. This step is repeated until the cell pellet appears relatively free of red blood cells. Cells are resuspended in DPBS (Dulbecco's Phosphate Buffered Saline) (w.o. Ca^2+, Mg^2+) and the concentration adjusted to 1.4×10^6 cells/ml in HBSS (Hanks Balanced Salt solution) (w Ca^2+, Mg^2+) containing 0.1% BSA (Bovine Serum Albumin) and 5 mM glucose just prior to assay initiation. Titrated reference and test compounds are pre-mixed with HE (Hydroethidine) (10 μM final assay concentration) before addition to 96-well plates containing 2.5×10^5 cells. Following 40 min incubation at rt, changes in the respiratory burst is estimated by measuring fluorescence at 579 nm (excitation: 485 nm) using an Envision plate reader.
as §1, with “(5×10^−7” for “(1.5×10^−7”, “bottom. Abs EC50 is the concentration of test compound that provokes a response corresponding to 50% of the maximal effect associated with the positive control (5×10^−7 M PEP0005).” for “bottom.”

HeLa cells = assay: Necrosis assay; conditions: Homo sapiens, 0.5 h, 30 min at 37° C., PrestoBlue, normalised to 4 10^−4 M PEP0005/ingenol mebutate, read-out: HeLa necrosis EC50 range
Procedure: HeLa cells (ATCC CCL-002) were grown in minimal essential medium (Invitrogen catalog no. 42360) containing 10% fetal bovine serum, 100 IU/ml penicillin and 100 μg/ml streptomycin. 4,000-6,000 cells were seeded into 96-well black ViewPlates-plates, clear bottom, (Perkin Elmer) in 100 μl medium and incubated overnight. Compounds were dissolved and pre-diluted in DMSO in 96-well polypropylene plates (Greiner) in a concentration range of 15 μM to 600 μM. At the time of the experiment cell plates were placed on heating blocks at 37° C., medium was removed and 40 μl fresh, pre-warmed medium was added per well. Cells were incubated for 15 min before addition of compounds. In parallel, 3 μl of compounds were diluted with 197 μl growth medium on a Tecan freedom-EVO pipetting station using 250 μl/s pipetting speed, in order to ensure effective mixing of the highly concentrated compound solutions with the aqueous phase.
These pre-dilution plates were then equilibrated on heating blocks at 37° C. for 10 min. 80 μl pre-diluted compound were transferred manually to the corresponding wells containing HeLa cells yielding compound concentrations of 10 μM to 400 μM. Control conditions were 1% DMSO in growth medium (100% viability) and 400 μM ingenol mebutate in growth medium (0% viability). Plates were incubated on the heating blocks at 37° C. for 30 min. At the end of the incubation 10 μl PrestoBlue reagent (Invitrogen) were added to each well, plates were sealed with black seal, followed by incubation at 37° C. for 10 min with gentle shaking (150 rpm). Subsequently, plates were placed at room temperature for 20-30 min. Plates were read immediately after on an Envision Fluorescence reader (Perkin Elmer) with excitation at 535 nm and emission at 630 nm. Test compound titration curves were fitted to a four-parameter sigmoidal curve after normalizing the effect of the test compound to the effect of the positive control (4 10^−4 M PEP0005/ingenol mebutate). Abs EC50 denotes the concentration of test compound producing 50% effect.

CC1=C[C@]23C(=O)[C@@H](C=C(CO)[C@@H](O)[C@]2(O)[C@H]1Oc1ncccc1C#N)[C@H]1[C@@H](C[C@H]3C)C1(C)C [Compound 116, 3-O-(3-Cyano-2-pyridyl)-ingenol]
EC50 [1]: ≥ 100 nM | EC50 [2]: 20 to 100 nM | EC50 (HeLa cells): ≥ 350000 nM

CC1=C[C@]23C(=O)[C@@H](C=C(CO)[C@@H](O)[C@]2(O)[C@H]1Oc1cc(C(F)(F)F)ccn1)[C@H]1[C@@H](C[C@H]3C)C1(C)C [Compound 113, 3-O-(4-(Trifluoromethyl)-2-pyridyl)-ingenol]
EC50 [1]: 20 to 100 nM | EC50 [2]: 20 to 100 nM | EC50 (HeLa cells): 150000 to 350000 nM

CC1=C[C@]23C(=O)[C@@H](C=C(CO)[C@@H](O)[C@]2(O)[C@H]1Oc1nccc2sccc12)[C@H]1[C@@H](C[C@H]3C)C1(C)C [Compound 127, 3-O-(Thieno[3,2-c]pyridine-4-yl)-ingenol]
EC50 [1]: 20 to 100 nM | EC50 [2]: 20 to 100 nM | EC50 (HeLa cells): 150000 to 350000 nM

CC1=C[C@]23C(=O)[C@@H](C=C(CO)[C@@H](O)[C@]2(O)[C@H]1Oc1noc2cc(Cl)ccc12)[C@H]1[C@@H](C[C@H]3C)C1(C)C [Compound 125, 3-O-(6-Chloro-1,2-benzoxazol-3-yl)-ingenol]
EC50 [1]: < 20 nM | EC50 [2]: < 20 nM | EC50 (HeLa cells): < 150000 nM

CC1=C[C@]23C(=O)[C@@H](C=C(CO)[C@@H](O)[C@]2(O)[C@H]1Oc1nccc(C(F)(F)F)n1)[C@H]1[C@@H](C[C@H]3C)C1(C)C [Compound 114, 3-O-(4-(Trifluoromethyl)-pyrimidin-2-yl)-ingenol]
EC50 [1]: ≥ 100 nM | EC50 [2]: ≥ 100 nM | EC50 (HeLa cells): ≥ 350000 nM

CC1=C[C@]23C(=O)[C@@H](C=C(CO)[C@@H](O)[C@]2(O)[C@H]1Oc1nn(C)c2ccccc12)[C@H]1[C@@H](C[C@H]3C)C1(C)C [Compound 107, 3-O-(1-Methylindazol-3-yl)-ingenol]
EC50 [1]: ≥ 100 nM | EC50 [2]: ≥ 100 nM | EC50 (HeLa cells): 150000 to 350000 nM

CC1=C[C@]23C(=O)[C@@H](C=C(CO)[C@@H](O)[C@]2(O)[C@H]1Oc1nccn1CCF)[C@H]1[C@@H](C[C@H]3C)C1(C)C [Compound 122, 3-O-(1-(2-Fluoroethyl)imidazol-2-yl)-ingenol]
EC50 [1]: ≥ 100 nM | EC50 [2]: ≥ 100 nM

CC1=C[C@]23C(=O)[C@@H](C=C(CO)[C@@H](O)[C@]2(O)[C@H]1Oc1ncccc1F)[C@H]1[C@@H](C[C@H]3C)C1(C)C [Compound 112, 3-O-(3-Fluoro-2-pyridyl)-ingenol]
EC50 [1]: ≥ 100 nM | EC50 [2]: 20 to 100 nM | EC50 (HeLa cells): ≥ 350000 nM

CC1=C[C@]23C(=O)[C@@H](C=C(CO)[C@@H](O)[C@]2(O)[C@H]1Oc1nccn1CC(F)F)[C@H]1[C@@H](C[C@H]3C)C1(C)C [Compound 121, 3-O-(1-(2,2-Difluoroethyl)imidazol-2-yl)-ingenol]
EC50 [1]: ≥ 100 nM | EC50 [2]: 20 to 100 nM

CC1=C[C@]23C(=O)[C@@H](C=C(CO)[C@@H](O)[C@]2(O)[C@H]1Oc1noc(C(C)C)n1)[C@H]1[C@@H](C[C@H]3C)C1(C)C [Compound 133, 3-O-(5-Isopropyl-1,2,4-oxadiazol-3-yl)-ingenol]
EC50 [1]: 20 to 100 nM | EC50 [2]: 20 to 100 nM | EC50 (HeLa cells): ≥ 350000 nM

CC1=C[C@]23C(=O)[C@@H](C=C(CO)[C@@H](O)[C@]2(O)[C@H]1Oc1noc2cccc(F)c12)[C@H]1[C@@H](C[C@H]3C)C1(C)C [Compound 128, 3-O-(4-Fluoro-1,2-benzoxazol-3-yl)-ingenol]
EC50 [1]: < 20 nM | EC50 [2]: < 20 nM | EC50 (HeLa cells): 150000 to 350000 nM

CC1=C[C@]23C(=O)[C@@H](C=C(CO)[C@@H](O)[C@]2(O)[C@H]1Oc1ncc(C(F)(F)F)cn1)[C@H]1[C@@H](C[C@H]3C)C1(C)C [Compound 110, 3-O-(5-(Trifluoromethyl)-pyrimidin-2-yl)-ingenol]
EC50 [1]: ≥ 100 nM | EC50 [2]: ≥ 100 nM | EC50 (HeLa cells): ≥ 350000 nM

CC1=C[C@]23C(=O)[C@@H](C=C(CO)[C@@H](O)[C@]2(O)[C@H]1Oc1nccc2occc12)[C@H]1[C@@H](C[C@H]3C)C1(C)C [Compound 126, 3-O-(Furo[3,2-c]pyridine-4-yl)-ingenol]
EC50 [2]: 20 to 100 nM | EC50 (HeLa cells): 150000 to 350000 nM

CC1=C[C@]23C(=O)[C@@H](C=C(CO)[C@@H](O)[C@]2(O)[C@H]1Oc1nccc2ccsc12)[C@H]1[C@@H](C[C@H]3C)C1(C)C [Compound 123, 3-O-(Thieno[2,3-c]pyridine-7-yl)-ingenol]
EC50 [1]: < 20 nM | EC50 [2]: 20 to 100 nM | EC50 (HeLa cells): ≥ 350000 nM

CC1=C[C@]23C(=O)[C@@H](C=C(CO)[C@@H](O)[C@]2(O)[C@H]1Oc1ncccc1Cl)[C@H]1[C@@H](C[C@H]3C)C1(C)C [Compound 115, 3-O-(3-Chloro-2-pyridyl)-ingenol]
EC50 [1]: 20 to 100 nM | EC50 [2]: 20 to 100 nM | EC50 (HeLa cells): 150000 to 350000 nM

CC1=C[C@]23C(=O)[C@@H](C=C(CO)[C@@H](O)[C@]2(O)[C@H]1Oc1ncnc(Cl)c1C)[C@H]1[C@@H](C[C@H]3C)C1(C)C [Compound 101, 3-O-(6-Chloro-5-methyl-pyrimidin-4-yl)-ingenol]
EC50 [1]: < 20 nM | EC50 [2]: 20 to 100 nM | EC50 (HeLa cells): < 150000 nM

CC1=C[C@]23C(=O)[C@@H](C=C(CO)[C@@H](O)[C@]2(O)[C@H]1Oc1cc(Br)ccn1)[C@H]1[C@@H](C[C@H]3C)C1(C)C [Compound 111, 3-O-(4-Bromo-2-pyridyl)-ingenol]
EC50 [1]: 20 to 100 nM | EC50 [2]: 20 to 100 nM | EC50 (HeLa cells): 150000 to 350000 nM

COc1ccc2c(O[C@H]3C(C)=C[C@]45C(=O)[C@@H](C=C(CO)[C@@H](O)[C@]34O)[C@H]3[C@@H](C[C@H]5C)C3(C)C)noc2c1 [Compound 132, 3-O-(6-Methoxy-1,2-benzoxazol-3-yl)-ingenol]
EC50 [1]: < 20 nM | EC50 [2]: < 20 nM | EC50 (HeLa cells): ≥ 350000 nM

CC1=C[C@]23C(=O)[C@@H](C=C(CO)[C@@H](O)[C@]2(O)[C@H]1Oc1ccc(C(F)(F)F)cn1)[C@H]1[C@@H](C[C@H]3C)C1(C)C [Compound 103, 3-O-(5-(Trifluoromethyl)-2-pyridyl)-ingenol]
EC50 [1]: 20 to 100 nM | EC50 (HeLa cells): 150000 to 350000 nM

C=CCn1ccnc1O[C@H]1C(C)=C[C@]23C(=O)[C@@H](C=C(CO)[C@@H](O)[C@]12O)[C@H]1[C@@H](C[C@H]3C)C1(C)C [Compound 109, 3-O-(1-Allylimidazol-2-yl)-ingenol]
EC50 [2]: 20 to 100 nM | EC50 (HeLa cells): ≥ 350000 nM
